From ChEMBL document CHEMBL1201862, “PubChem BioAssay data set” (2004)
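Where inhibition never reached the appropriate level, the endpoint shown equals the highest concentration tested. Otherwise, values were interpolated linearly from a five-concentration, 48-hour dose response in 96-well plates. GI50 marks 50% less growth.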 The source made the active and inactive calls. Cut-off read from the data, not from the text of the source: active = GI50 up to about 1.1 µM and inactive = higher.

Tests used:
Assay in all cases: growth of human tumour cells (NCI), 48 h
OVCAR-3 = system: OVCAR-3
SF-268 = system: SF-268
LXFL 529 = system: LXFL 529
SW-620 = system: SW-620
COLO 205 = system: COLO 205
TK-10 = system: TK-10
SK-MEL-2 = system: SK-MEL-2
M14 = system: M14
NCI-H226 = system: NCI-H226
OVCAR-4 = system: OVCAR-4
SNB-75 = system: SNB-75
Malme-3M = system: Malme-3M
SR = system: SR
HCT-15 = system: HCT-15
KM12 = system: KM12
BT-549 = system: BT-549
Hs-578T = system: Hs-578T
A498 = system: A498
T47D = system: T47D
PC-3 = system: PC-3

| SMILES | GI50 (OVCAR-3) | GI50 (SF-268) | GI50 (LXFL 529) | GI50 (SW-620) | GI50 (COLO 205) | GI50 (TK-10) | GI50 (SK-MEL-2) | GI50 (M14) | GI50 (NCI-H226) | GI50 (OVCAR-4) | GI50 (SNB-75) | GI50 (Malme-3M) | GI50 (SR) | GI50 (HCT-15) | GI50 (KM12) | GI50 (BT-549) | GI50 (Hs-578T) | GI50 (A498) | GI50 (T47D) | GI50 (PC-3) |
| --- | --- | --- | --- | --- | --- | --- | --- | --- | --- | --- | --- | --- | --- | --- | --- | --- | --- | --- | --- | --- |
| CN1C(=O)CN2C(Cl)(Cl)C2(c2ccccc2F)c2cc([N+](=O)[O-])ccc21 (centres undefined) | > 100 µM (inactive) | 51.1 µM (inactive) | 58.1 µM (inactive) | 69 µM (inactive) | 52.1 µM (inactive) | 60.7 µM (inactive) | 38.2 µM (inactive) | > 100 µM (inactive) | 16.2 µM (inactive) | > 100 µM (inactive) | 17.5 µM (inactive) | 18.4 µM (inactive) | 33 µM (inactive) | 41.4 µM | 38.7 µM (inactive) | – | – | – | – | – |
| COc1c(Cl)c(=O)oc2ccc(Cl)cc12 | > 100 µM (inactive) | > 100 µM (inactive) | – | > 100 µM (inactive) | > 100 µM (inactive) | > 100 µM (inactive) | > 100 µM (inactive) | > 100 µM (inactive) | > 100 µM (inactive) | > 100 µM (inactive) | 39.9 µM (inactive) | > 100 µM (inactive) | > 100 µM (inactive) | > 100 µM | > 100 µM (inactive) | > 100 µM (inactive) | > 100 µM (inactive) | > 100 µM (inactive) | > 100 µM (inactive) | > 100 µM (inactive) |
| COc1ccc(OC)c2c1CC(C(=O)O)(C(=O)O)CC2=O | > 100 µM (inactive) | > 100 µM (inactive) | > 100 µM (inactive) | > 100 µM (inactive) | – | > 100 µM (inactive) | > 100 µM (inactive) | > 100 µM (inactive) | > 100 µM (inactive) | > 100 µM (inactive) | > 100 µM (inactive) | > 100 µM (inactive) | – | > 100 µM | > 100 µM (inactive) | – | – | – | – | – |
| CC(C)N(C(=O)C12C3C4C1C1C4(C#N)C3C12C#N)C(C)C (centres undefined) | > 100 µM (inactive) | > 100 µM (inactive) | > 100 µM (inactive) | > 100 µM (inactive) | > 100 µM (inactive) | > 100 µM (inactive) | – | > 100 µM (inactive) | > 100 µM (inactive) | > 100 µM (inactive) | – | > 100 µM (inactive) | – | > 100 µM | – | – | – | > 100 µM (inactive) | – | – |
| CC(/C=C/c1ncccc1OCCCCCC(=O)O)=N\NC1=NCCN1 | > 100 µM (inactive) | > 100 µM (inactive) | > 100 µM (inactive) | > 100 µM (inactive) | > 100 µM (inactive) | 65.3 µM (inactive) | > 100 µM (inactive) | > 100 µM (inactive) | > 100 µM (inactive) | > 100 µM (inactive) | – | > 100 µM (inactive) | > 100 µM (inactive) | > 100 µM | > 100 µM (inactive) | – | – | – | – | – |
| COc1ccc(P2(=S)SP(=S)(c3ccc(Cl)cc3)S2)cc1 (centres undefined) | > 100 µM (inactive) | > 100 µM (inactive) | – | > 100 µM (inactive) | > 100 µM (inactive) | > 100 µM (inactive) | > 100 µM (inactive) | > 100 µM (inactive) | > 100 µM (inactive) | > 100 µM (inactive) | > 100 µM (inactive) | > 100 µM (inactive) | > 100 µM (inactive) | > 100 µM | > 100 µM (inactive) | > 100 µM (inactive) | > 100 µM (inactive) | > 100 µM (inactive) | > 100 µM (inactive) | > 100 µM (inactive) |
| Cc1ccc(C2C(Cl)C(=O)N2n2cnc3ccccc3c2=O)cc1 (centres undefined) | 81.1 µM (inactive) | > 100 µM (inactive) | > 100 µM (inactive) | > 100 µM (inactive) | > 100 µM (inactive) | > 100 µM (inactive) | > 100 µM (inactive) | > 100 µM (inactive) | 26 µM (inactive) | 65.9 µM (inactive) | 91.6 µM (inactive) | > 100 µM (inactive) | 21.5 µM (inactive) | > 100 µM | > 100 µM (inactive) | – | – | – | – | – |
| CSc1c(C#N)c(O)n(-c2ccc(Cl)cc2)c(=O)c1C(C)=O | 48.3 µM (inactive) | 61.7 µM (inactive) | – | 44.7 µM (inactive) | 24.2 µM (inactive) | 42.6 µM (inactive) | > 100 µM (inactive) | 89.9 µM (inactive) | 26.9 µM (inactive) | 37.5 µM (inactive) | 94.8 µM (inactive) | 23.3 µM (inactive) | 30.5 µM (inactive) | 27.3 µM | > 100 µM (inactive) | 90.6 µM (inactive) | > 100 µM (inactive) | 29.3 µM (inactive) | 27.1 µM (inactive) | > 100 µM (inactive) |
| c1ccc(/N=c2\snc3scc(-c4ccccc4)n23)cc1 | 22.8 µM (inactive) | 50.1 µM (inactive) | 33.5 µM (inactive) | 39.4 µM (inactive) | 31.5 µM (inactive) | 66.2 µM (inactive) | 34.8 µM (inactive) | 33 µM (inactive) | 26.7 µM (inactive) | 39.6 µM (inactive) | > 100 µM (inactive) | 31.6 µM (inactive) | – | 41.6 µM | 36.5 µM (inactive) | – | – | > 100 µM (inactive) | – | – |
| CC(=O)Nc1ccc2c3c(cc(O)c2c1)N(C(=O)CCCC(=O)N1CC(CCl)c2c1cc(O)c1cc(NC(C)=O)ccc21)CC3CCl (centres undefined) | 0.0111 µM (active) | < 0.01 µM (active) | – | 0.0392 µM (active) | 0.0154 µM (active) | 0.022 µM (active) | < 0.01 µM (active) | < 0.01 µM (active) | < 0.01 µM (active) | 0.0238 µM (active) | < 0.01 µM (active) | 0.01 µM (active) | < 0.01 µM (active) | 0.0773 µM | 0.0132 µM (active) | 0.011 µM (active) | 0.0285 µM (active) | < 0.01 µM (active) | < 0.01 µM (active) | 0.0129 µM (active) |
| CCOC(=O)c1ccc(Nc2cnc3ccc(C(F)(F)F)cc3n2)cc1 | 19.5 µM (inactive) | 12.6 µM (inactive) | – | 15.2 µM (inactive) | 15.3 µM (inactive) | 12.3 µM (inactive) | 15.1 µM (inactive) | 22.7 µM (inactive) | 16.4 µM (inactive) | 11.6 µM (inactive) | 17.9 µM (inactive) | 21.4 µM (inactive) | 10.3 µM (inactive) | 14.8 µM | 13.1 µM (inactive) | 15.8 µM (inactive) | 17.4 µM (inactive) | 16.6 µM (inactive) | 18.7 µM (inactive) | 19.2 µM (inactive) |
| Fc1ccc2nc3n(c2c1)C(c1c(F)cccc1F)SC3 (centres undefined) | 54.8 µM (inactive) | > 100 µM (inactive) | – | 49.5 µM (inactive) | 45.2 µM (inactive) | 96.4 µM (inactive) | 96.8 µM (inactive) | 49.1 µM (inactive) | > 100 µM (inactive) | 64.3 µM (inactive) | 31.6 µM (inactive) | > 100 µM (inactive) | 18.4 µM (inactive) | 51.8 µM | 39.4 µM (inactive) | 70 µM (inactive) | > 100 µM (inactive) | 65.5 µM (inactive) | 40.6 µM (inactive) | 40.7 µM (inactive) |
| O=C(O)CNS(=O)(=O)c1ccc(NC(=O)c2ccc([N+](=O)[O-])cc2)cc1 | > 100 µM (inactive) | > 100 µM (inactive) | > 100 µM (inactive) | > 100 µM (inactive) | > 100 µM (inactive) | > 100 µM (inactive) | > 100 µM (inactive) | > 100 µM (inactive) | > 100 µM (inactive) | > 100 µM (inactive) | > 100 µM (inactive) | > 100 µM (inactive) | – | > 100 µM | > 100 µM (inactive) | – | – | > 100 µM (inactive) | – | – |
| C[C@@H]1CC2(C[C@@H](C)C3[C@@H](CC4(C)CCCC5C6=CC(O)(CC[C@]34C)OC6=CC(=O)OC5(C)C)O2)OC1=O (some centres undefined) | > 100 µM (inactive) | – | > 100 µM (inactive) | > 100 µM (inactive) | > 100 µM (inactive) | > 100 µM (inactive) | > 100 µM (inactive) | > 100 µM (inactive) | > 100 µM (inactive) | > 100 µM (inactive) | 96.2 µM (inactive) | > 100 µM (inactive) | > 100 µM (inactive) | > 100 µM | > 100 µM (inactive) | – | – | – | – | – |
| COc1cc(C2c3cc4c(cc3[C@@H](Nc3ccc(C(=O)O)cc3)C3COC(=O)[C@H]23)OCO4)cc(OC)c1O (some centres undefined) | 20 µM (inactive) | 14.6 µM (inactive) | 11 µM (inactive) | – | – | 27.8 µM (inactive) | 30.4 µM (inactive) | 20.7 µM (inactive) | 3.72 µM (inactive) | 20.2 µM (inactive) | 13.2 µM (inactive) | 13.7 µM (inactive) | – | 13.4 µM | 21.6 µM (inactive) | – | – | 18.7 µM (inactive) | – | – |
| CCC(=O)O[C@@H]1C2C(OC(C)=O)C34COC(C)([C@@H]3C3C(C[C@]3(C)OC(C)=O)[C@@H](OC(=O)c3ccccc3)C4=O)[C@H](OC(C)=O)[C@@]2(OC(C)=O)C[C@@H]1C (some centres undefined) | 21.6 µM (inactive) | 44.1 µM (inactive) | 34.9 µM (inactive) | 47.8 µM (inactive) | 43.5 µM (inactive) | 15.1 µM (inactive) | 79.4 µM (inactive) | 33.9 µM (inactive) | 20 µM (inactive) | 21.1 µM (inactive) | 3.01 µM (inactive) | 36.6 µM (inactive) | 54.1 µM (inactive) | 16 µM | > 100 µM (inactive) | – | – | – | – | – |
| COC[C@@H]1Cc2cc(OC)c3c(c2[C@H](c2ccc(OC)c(OC)c2)[C@H]1COC)OCO3 [HYPOPHYLLANTHIN] | > 100 µM (inactive) | 51.6 µM (inactive) | > 100 µM (inactive) | > 100 µM (inactive) | > 100 µM (inactive) | > 100 µM (inactive) | > 100 µM (inactive) | 50 µM (inactive) | – | – | 28.1 µM (inactive) | 78.9 µM (inactive) | > 100 µM (inactive) | > 100 µM | > 100 µM (inactive) | – | – | > 100 µM (inactive) | – | – |
